The test has as its target T1, hCRTH2 receptor (Homo sapiens, UniProt Q9Y5Y4).
T1 construct: expressed in transfected cells; host or cells: HEK293
T1 sequence (Q9Y5Y4 1-395): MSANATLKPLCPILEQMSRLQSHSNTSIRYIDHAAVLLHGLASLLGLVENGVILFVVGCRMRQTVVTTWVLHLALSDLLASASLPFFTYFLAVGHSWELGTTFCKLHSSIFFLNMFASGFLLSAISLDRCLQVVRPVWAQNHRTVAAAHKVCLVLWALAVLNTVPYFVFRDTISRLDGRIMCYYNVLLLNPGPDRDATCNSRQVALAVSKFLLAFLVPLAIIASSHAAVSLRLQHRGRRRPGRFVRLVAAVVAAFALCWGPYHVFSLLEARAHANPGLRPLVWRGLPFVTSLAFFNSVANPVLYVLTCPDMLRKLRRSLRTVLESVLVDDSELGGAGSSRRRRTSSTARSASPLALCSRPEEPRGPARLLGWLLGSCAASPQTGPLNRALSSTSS
The experiment in a line: Radioligand displacement assay (3H-PGD2) on hCRTH2 receptor membranes. Format: binding. As to conditions: antagonistic activity. In general terms: Displacement assays read how much labelled ligand stays bound in the presence of the test substance.

Setting [1] is: 3H-PGD2 displacement on HEK293-hCRTH2 membrane fragments.
[2] abbreviates: 3H-PGD2 radioligand displacement, HEK293-hCRTH2 membranes.

As usually defined, the IC50 is the concentration that gives 50% inhibition. Higher therefore signals lower potency. `CS(=O)(=O)Nc1cccc2c1CCN(C(=O)OCc1ccccc1)C2c1cc(F)ccc1OCC(=O)O` (racemic) [Example 222, (±)-1-(2-Carboxymethoxy-5-fluoro-phenyl)-5-methanesulfonylamino-3,4-dihydro-1H-isoquinoline-2-carboxylic acid benzyl ester] showed an IC50 under setting [1] of 141 nM.

Under setting [1], `O=C(O)COc1ccc(-n2ccnn2)cc1C1c2ccccc2CCN1C(=O)OCc1ccccc1` (racemic) [Example 223, (±)-1-(2-Carboxymethoxy-5-[1,2, 3]triazol-1-yl-phenyl)-3,4-dihydro-1H-isoquinoline-2-carboxylic acid benzyl ester] returned an IC50 of 7.01 nM.

Compound `O=C(O)COc1ccc(-n2nccn2)cc1C1c2ccccc2CCN1C(=O)OCc1ccccc1` (racemic) [Example 224, (±)-1-(2-Carboxymethoxy-5-[1,2, 3]triazol-2-yl-phenyl)-3,4-dihydro-1H-isoquinoline-2-carboxylic acid benzyl ester] displayed an IC50 under setting [1] of 12.7 nM.

`COc1ccccc1CNC(=S)N1CCc2ccccc2C1c1cc(Cl)ccc1OCC(=O)O` (racemic) [Example 225, (±)-{4-Chloro-2-[2-(2-methoxy-benzylthiocarbamoyl)-1,2,3,4-tetrahydro-isoquinolin-1-yl]-phenoxy}-acetic acid] came in with an IC50 under setting [1] of 76.5 nM.

As for `O=C(O)COc1ccc(Cl)cc1C1c2ccc(F)cc2CCN1C(=O)OCc1ccccc1` (racemic) [Example 226, (±)-1-(2-Carboxymethoxy-5-chloro-phenyl)-6-fluoro-3,4-dihydro-1H-isoquinoline-2-carboxylic acid benzyl ester], the IC50 under setting [1] turned out to be 5.23 nM.

The compound `O=C(O)COc1ccc(Cl)cc1C1c2ccccc2CCN1C(=O)OCc1ccccc1Br` (racemic) [Example 227] had an IC50 under setting [1] of 7.21 nM.

In turn, `O=C(O)COc1ccc(Cl)cc1C1c2ccccc2CN1C(=O)OCc1ccccc1` (racemic) [Example 230] gave an IC50 under setting [1] of 12.8 nM.

Under setting [1], `COc1ccccc1COC(=O)N1CCc2ccccc2C1c1cc(Cl)ccc1OCC(=O)O` (racemic) [Example 233] yielded an IC50 of 4.55 nM.

Compound `O=C(O)COc1ccc(Cl)cc1C1c2ccccc2CCN1C(=O)OCc1ccccc1F` (racemic) [Example 234] yielded an IC50 under setting [1] of 3.61 nM.

`Cc1ccccc1COC(=O)N1CCc2ccccc2C1c1cc(Cl)ccc1OCC(=O)O` (racemic) [Example 235] displayed an IC50 under setting [1] of 5.62 nM.

Take `O=C(O)COc1ccc(Cl)cc1C1c2ccccc2CCN1C(=O)OCc1ccccc1C(F)(F)F` (racemic) [Example 236]: under setting [1], the IC50 was found to be 5.59 nM.

In turn, `COc1cccc(COC(=O)N2CCc3ccccc3C2c2cc(Cl)ccc2OCC(=O)O)c1` (racemic) [Example 237] returned an IC50 under setting [1] of 4.02 nM.

`O=C(O)COc1ccc(Cl)cc1C1c2ccccc2CCN1C(=O)OCc1cccc(F)c1` (racemic) [Example 238]: the IC50 under setting [1] worked out at 12.6 nM.

`Cc1cccc(COC(=O)N2CCc3ccccc3C2c2cc(Cl)ccc2OCC(=O)O)c1` (racemic) [Example 239] came in with an IC50 under setting [1] of 17.7 nM.

Under setting [1], `O=C(O)COc1ccc(Cl)cc1C1c2ccccc2CCN1C(=O)OCc1cccc(C(F)(F)F)c1` (racemic) [Example 240] yielded an IC50 of 18.6 nM.

Under setting [1], `O=C(O)COc1ccc(Cl)cc1C1c2ccccc2CCN1C(=O)OCc1ccc(Cl)cc1Cl` (racemic) [Example 241] registered an IC50 of 0.96 nM.

Regarding `O=C(O)COc1ccc(Cl)cc1C1c2ccccc2CCN1C(=O)OCc1cccc(Cl)c1Cl` (racemic) [Example 242], the IC50 under setting [1] is 1.07 nM.

With `O=C(O)COc1ccc(Cl)cc1C1c2ccccc2CCN1C(=O)OCc1c(Cl)cccc1Cl` (racemic) [Example 243], the IC50 under setting [1] is 6.48 nM.

In the case of `COc1cccc(OC)c1COC(=O)N1CCc2ccccc2C1c1cc(Cl)ccc1OCC(=O)O` (racemic) [Example 244], the IC50 under setting [1] was 7.67 nM.

`Cc1ccc(COC(=O)N2CCc3ccccc3C2c2cc(Cl)ccc2OCC(=O)O)c(C)c1` (racemic) [Example 245] showed an IC50 under setting [1] of 2.87 nM.

On to `Cc1cccc(COC(=O)N2CCc3ccccc3C2c2cc(Cl)ccc2OCC(=O)O)c1C` (racemic) [Example 246], for which the IC50 under setting [1] worked out at 3.43 nM.

The compound `Cc1cccc(C)c1COC(=O)N1CCc2ccccc2C1c1cc(Cl)ccc1OCC(=O)O` (racemic) [Example 247] registered an IC50 under setting [1] of 17.3 nM.

`O=C(O)COc1ccc(Cl)cc1C1c2ccccc2CCN1C(=O)OCc1ccc(F)cc1F` (racemic) [Example 248] returned an IC50 under setting [1] of 3.3 nM.

For the compound `O=C(O)COc1ccc(Cl)cc1C1c2ccccc2CCN1C(=O)OCc1cccc(F)c1F` (racemic) [Example 249], under setting [1], the IC50 was 3.86 nM.

Compound `O=C(O)COc1ccc(Cl)cc1C1c2ccccc2CCN1C(=O)OCc1c(F)cccc1F` (racemic) [Example 250] came in with an IC50 under setting [1] of 6.84 nM.

`Cc1cc(C)c(COC(=O)N2CCc3ccccc3C2c2cc(Cl)ccc2OCC(=O)O)c(C)c1` (racemic) [Example 251] gave an IC50 under setting [1] of 12.3 nM.

`O=C(O)COc1ccc(Cl)cc1C1c2ccccc2CCN1C(=O)OCc1c(F)cccc1Cl` (racemic) [Example 252] returned an IC50 under setting [1] of 3.98 nM.

`O=C(O)COc1ccc(Cl)cc1C1c2ccccc2CCN1C(=O)OCc1cc(Cl)ccc1Cl` (racemic) [Example 253] registered an IC50 under setting [1] of 6.52 nM.

Regarding `COc1ccc(COC(=O)N2CCc3ccccc3C2c2cc(Cl)ccc2OCC(=O)O)c(OC)c1` (racemic) [Example 254], the IC50 under setting [1] was found to be 16 nM.

Under setting [1], `COc1cccc(COC(=O)N2CCc3ccccc3C2c2cc(Cl)ccc2OCC(=O)O)c1OC` (racemic) [Example 255] had an IC50 of 4.9 nM.

Regarding `Cc1ccc(COC(=O)N2CCc3ccccc3C2c2cc(Cl)ccc2OCC(=O)O)c(C)n1` (racemic) [Example 256], the IC50 under setting [1] came out at 14.1 nM.

With `N#Cc1cccc(COC(=O)N2CCc3ccccc3C2c2cc(Cl)ccc2OCC(=O)O)c1` (racemic) [Example 257], the IC50 under setting [1] was 5.72 nM.

`O=C(O)COc1ccc(Cl)cc1C1c2ccccc2CCN1C(=O)OCc1cc(F)ccc1F` (racemic) [Example 258] showed an IC50 under setting [1] of 7.54 nM.

The compound `O=C(O)COc1ccc(Cl)cc1C1c2ccccc2CCN1C(=O)OCc1cc(Cl)ccc1F` (racemic) [Example 259] gave an IC50 under setting [1] of 5.29 nM.

Take `O=C(O)COc1ccc(Cl)cc1C1c2ccccc2CCN1C(=O)OCc1cc(F)ccc1Cl` (racemic) [Example 260]: the IC50 under setting [1] amounted to 15.1 nM.

Turning to `O=C(O)COc1ccc(Cl)cc1C1c2ccccc2CCN1C(=O)OCC1CCCCC1` (racemic) [Example 262], the IC50 under setting [1] was found to be 9.43 nM.

For `Cn1ccc(COC(=O)N2CCc3ccccc3C2c2cc(Cl)ccc2OCC(=O)O)n1` (racemic) [Example 263], the IC50 under setting [1] was 7.91 nM.

`O=C(O)COc1ccc(Cl)cc1C1c2ccccc2CCN1C(=O)OCC1CCCC1` (racemic) [Example 264]: under setting [1], the IC50 was 13.1 nM.

The compound `CC(C)COC(=O)N1CCc2ccccc2C1c1cc(Cl)ccc1OCC(=O)O` (racemic) [Example 265] had an IC50 under setting [1] of 37.6 nM.

Compound `CCCCOC(=O)N1CCc2ccccc2C1c1cc(Cl)ccc1OCC(=O)O` (racemic) [Example 266] yielded an IC50 under setting [1] of 24.5 nM.

Under setting [1], `COCCOC(=O)N1CCc2ccccc2C1c1cc(Cl)ccc1OCC(=O)O` (racemic) [Example 267] gave an IC50 of 21.2 nM.

In the case of `O=C(O)COc1ccc(Cl)cc1C1c2ccccc2CCN1C(=O)OCC1CC1` (racemic) [Example 268], under setting [1], the IC50 stood at 27.7 nM.

For the compound `Cc1cc(C)n(COC(=O)N2CCc3ccccc3C2c2cc(Cl)ccc2OCC(=O)O)n1` (racemic) [Example 269], under setting [1], the IC50 turned out to be 4.95 nM.

Under setting [1], `Cc1cc(COC(=O)N2CCc3ccccc3C2c2cc(Cl)ccc2OCC(=O)O)no1` (racemic) [Example 270] gave an IC50 of 8.31 nM.

Regarding `Cc1cc(COC(=O)N2CCc3ccccc3C2c2cc(Cl)ccc2OCC(=O)O)nn1C` (racemic) [Example 271], under setting [1], the IC50 came to 12 nM.

In turn, `O=C(O)COc1ccc(Cl)cc1C1c2ccccc2CCN1C(=O)OCc1ccc(Cl)cc1` (racemic) [Example 272] registered an IC50 under setting [1] of 17.1 nM.

Under setting [2], `Cc1ccc(COC(=O)N2CCc3ccccc3C2c2cc(Cl)ccc2OCC(=O)O)cc1` (racemic) [Example 360] registered an IC50 of 18.8 nM.

The compound `COc1ccc(COC(=O)N2CCc3ccccc3C2c2cc(Cl)ccc2OCC(=O)O)cc1` (racemic) [Example 361] had an IC50 under setting [2] of 22.8 nM.

For the compound `O=C(O)COc1ccc(Cl)cc1C1c2ccccc2CCN1C(=O)OCc1ccc(F)cc1` (racemic) [Example 362], under setting [2], the IC50 was 14.3 nM.

As for `O=C(O)COc1ccc(Cl)cc1C1c2ccccc2CCN1C(=O)OCc1ccc(C(F)(F)F)cc1` (racemic) [Example 363], the IC50 under setting [2] was found to be 34.1 nM.

As for `O=C(O)COc1ccc(Cl)cc1C1c2ccccc2CCN1C(=O)OCc1cccc(Cl)c1` (racemic) [Example 364], the IC50 under setting [2] was 16.5 nM.

Take `O=C(O)COc1ccc(Cl)cc1C1c2cc(F)ccc2CCN1C(=O)OCc1ccccc1` (racemic) [Example 365]: the IC50 under setting [2] amounted to 37.8 nM.

On to `O=C(O)COc1ccccc1C1c2ccccc2CCN1C(=O)OCc1ccccc1` (racemic) [Example 366], for which the IC50 under setting [2] came out at 41.5 nM.

`Cc1cn(CCC(=O)N2CCc3ccccc3C2c2cc(Cl)ccc2OCC(=O)O)c2ccc(F)cc12` (racemic) [Example 368] registered an IC50 under setting [2] of 20.7 nM.

`O=C(O)COc1ccc(Cl)cc1C1c2ccccc2CCN1C(=O)CCn1ccc2cccnc21` (racemic) [Example 369] showed an IC50 under setting [2] of 195 nM.

As to `O=C(O)COc1ccc(Cl)cc1C1c2ccccc2CCN1C(=O)CCn1ccc2ccc(C(F)(F)F)cc21` (racemic) [Example 370], the IC50 under setting [2] was found to be 80.6 nM.

Source of the values: US8575158B2, “1-phenyl-substituted heterocyclyl derivatives and their use as prostaglandin D2 receptor modulators” (Actelion Pharmaceuticals Ltd., priority 2010, dated 2013).
